{"source": "patent US4303640A", "about": "“Oil-in-water organophosphorus insecticidal emulsion” (priority 1979, dated 1981)", "key": {"physchem": {"assay": "physchem", "details": "water"}, "[1]": {"assay": "size of emulsified particles of the active ingredient (microscope)", "format": "physicochemical", "details": "oil-in-water emulsion, as prepared", "description": "A brief description of the method of producing the oil-in-water insecticidal emulsion of this invention will be given below. First, an insecticidally active liquid ingredient of the organophosphorus compound is added to a 2 to 20 wt% aqueous solution of polyvinyl alcohol or gum arabic, and a conventonal stirrer such as a T.K. Homomixer (a homogenizer manufactured by Tokushu Kika Kogyo Co., Ltd.) or a Shinagawa All-Purpose Mixer (a mixer manufactured by San-Ei-Seisakusho, Ltd.) is used to disperse the particles of the active ingredient (A.I.), generally at ambient temperature or, if necessary, at an elevated temperature (about 40° to 80° C.). The size of the emulsified particles of the active ingredient can be varied wihtin the range of from about 1 to 200μ depending upon the stirring force or the content of polyvinyl alcohol or gum arabic. A microscope is used to check the size of the emulsified particles of the active ingredient. Finally, for the purpose of preventing settling of the emulsified particles and improving the dispersion stability, an aqueous solution of a thickener is added to the emulsion in a suitable amount. The resulting oil-in-water insecticidal emulsion remains stable for an extended period. […]"}}}
{"smiles": "COP(=O)(Cc1cccc(C#N)c1)OC", "values": [{"measurement": "water-solubility at 10° C.", "result": "ca. 6,000 ppm"}, {"measurement": "solubility", "setting": "physchem", "result": "~6000", "unit": "µg/mL"}]}
{"smiles": "COP(=S)(OC)Oc1ccc([N+](=O)[O-])c(C)c1", "note": "[Compound (1), O,O-dimethyl O-(3-methyl-4-nitrophenyl)phosphorothioate]", "values": [{"measurement": "Particle Size of emulsified active ingredient", "setting": "[1]", "result": "1 to 30", "unit": "μ"}, {"measurement": "solubility", "setting": "physchem", "result": 5, "unit": "µg/mL"}]}
{"smiles": "CCOC(=O)CC(SP(=S)(OC)OC)C(=O)OCC", "note": "(stereo not drawn) [Compound (2), O,O-dimethyl S-[1,2-di-(ethoxycarbonyl)ethyl]-phosphorodithioate]", "values": [{"measurement": "solubility", "setting": "physchem", "result": 145, "unit": "µg/mL"}]}
{"smiles": "COP(=S)(OC)Oc1ccc(C#N)cc1", "note": "[Compound (3), O,O-dimethyl O-(4-cyanophenyl)phosphorothioate]", "values": [{"measurement": "Particle Size of emulsified active ingredient", "setting": "[1]", "result": "1 to 50", "unit": "μ"}, {"measurement": "solubility", "setting": "physchem", "result": 28, "unit": "µg/mL"}]}
{"smiles": "CCOC(=O)C(SP(=S)(OC)OC)c1ccccc1", "note": "(stereo not drawn) [Compound (4), O,O-dimethyl S-[α-(ethoxycarbonyl)benzyl]-phosphorodithioate]", "values": [{"measurement": "solubility", "setting": "physchem", "result": 4, "unit": "µg/mL"}]}
